According to publication PMC5591244, “Novel selective, potent naphthyl TRPM8 antagonists identified through a combined ligand- and structure-based virtual screening approach” (Scientific Reports, 2017):
Entries after “also recorded” stand apart in the source; their conditions may differ.

Experiments:
TRPA1 = TRPA1 (Homo sapiens, UniProt O75762); assay: Selectivity calcium mobilization assay, TRPA1; type: cell-based; conditions: agonist 10 μM AITC
Procedure: For calcium mobilization assays, cells were seeded at 10,000 cells/well in 384-well plates coated with poly-D-lysine (MATRIX black/clear bottom #4332-CPL, Thermo Scientific, Waltham, MA, USA) in complete medium.Twenty-four hours after seeding, the plates were washed with Tyrode’s buffer with a Bio-Tek-ELx405 Microplate Washer (Merck Millipore; Billerica, MA, USA), and then 10 µl/well of a solution containing the fluorescent Ca^2+ indicator Fluo-4 NW dye was added. Cells were incubated for 1 h at room temperature before test compounds were added at 3X the concentration with respect to the final wanted concentration to be tested with a FLIPR TETRA system (Molecular Devices, Sunnyvale, CA, USA). Calcium mobilization was monitored over a period of 5 min. A second injection of 10 µl/well of a reference agonist (icilin or Cooling agent 10) at 4X concentration in assay buffer was performed using the FLIPR TETRA system. Of note, for selectivity assays, the following agonists were used: 10 μM AITC (allyl isothiocyanate) for TRPA1; 100 nM Capsaicin for TRPV1; and 20 nM GSK1016790A for TRPV4.

[1] = tested on: rat bladder (rhythmic bladder contraction); assay: Isovolumetric bladder rat model; type: in vivo
Procedure: To assess the activity of compound 1 in preclinical models of painful urologic syndromes as OBS we used an isovolumetric rat bladder animal model. A preliminary PK/ADMET study was conducted to assess the behaviour of compound 1 in vivo (Table S3).
Female Wistar rats (190–250 g) obtained from Charles River Laboratories were housed according to animal welfare guidelines. Rats were housed in a specific-pathogen-free environment under strictly controlled light cycle conditions, and food and water were provided ad libitum. All experimental protocols were carried out by Urosphere in accordance with the European Community Council Directive 86/609/EEC. They were performed in accordance with French legislation concerning the protection of laboratory animals and they were approved by French Ministry for Agriculture and Fisheries which provided a currently valid license for experiments on vertebrate animals to Dr. Philippe Lluel.
For intravenous administration, compound 1 was diluted in vehicle (10% of 2:1 solutol:NMP, 16% buffer, and 74% H2O) according to body weight to obtain doses of 10 mg/kg. For intravesical administration, compound 1 was diluted at a concentration of 7.56 mg/ml in a solution of 7% 2:1 solutol:NMP, […]. Eight rats were used for the control group and eight were used for the treated group.
Rats were anesthetized with urethane (1 g/kg, i.p.), given as a divided dose of 80% initially and 20% 15 min later. After abdominal incision, the ureters were ligated and sectioned. A catheter was placed into the bladder through the urethra. Then, the urethra was ligated at the level of the urinary meatus. For cystometric experiments with intravenous compound 1 administration a bladder catheter was connected via a T-tube to a strain gauge, which was used to measure the intravesical pressure. Isovolumetric bladder contractions were induced by stepwise injections of physiological saline at room temperature (100 μl every 5 min) until stable RBC occurred. After stabilization and a control period of at least 30 min, characterized by stable and reproducible bladder contractions (basal values), the test substance or vehicle was administered by intravenous infusion (1 mL within 5 min). The effects of compound 1 on micturition frequency (MF) (peaks/30 min), time of inhibition, and threshold volume (ml) (volume inducing RBC) were analyzed. The drug effects were evaluated from the end of the administration up to 1 hour after administration. For intravesical administration, compounds were administered intravesically 3 × 100 μl every 5 min. Then, the bladder was filled with 100 μl of saline every 5 min until the occurrence of rhythmic bladder contraction (RBC) with a maximal volume of 3 mL. […]

Sequence of TRPA1 (O75762 whole entry, species assumed): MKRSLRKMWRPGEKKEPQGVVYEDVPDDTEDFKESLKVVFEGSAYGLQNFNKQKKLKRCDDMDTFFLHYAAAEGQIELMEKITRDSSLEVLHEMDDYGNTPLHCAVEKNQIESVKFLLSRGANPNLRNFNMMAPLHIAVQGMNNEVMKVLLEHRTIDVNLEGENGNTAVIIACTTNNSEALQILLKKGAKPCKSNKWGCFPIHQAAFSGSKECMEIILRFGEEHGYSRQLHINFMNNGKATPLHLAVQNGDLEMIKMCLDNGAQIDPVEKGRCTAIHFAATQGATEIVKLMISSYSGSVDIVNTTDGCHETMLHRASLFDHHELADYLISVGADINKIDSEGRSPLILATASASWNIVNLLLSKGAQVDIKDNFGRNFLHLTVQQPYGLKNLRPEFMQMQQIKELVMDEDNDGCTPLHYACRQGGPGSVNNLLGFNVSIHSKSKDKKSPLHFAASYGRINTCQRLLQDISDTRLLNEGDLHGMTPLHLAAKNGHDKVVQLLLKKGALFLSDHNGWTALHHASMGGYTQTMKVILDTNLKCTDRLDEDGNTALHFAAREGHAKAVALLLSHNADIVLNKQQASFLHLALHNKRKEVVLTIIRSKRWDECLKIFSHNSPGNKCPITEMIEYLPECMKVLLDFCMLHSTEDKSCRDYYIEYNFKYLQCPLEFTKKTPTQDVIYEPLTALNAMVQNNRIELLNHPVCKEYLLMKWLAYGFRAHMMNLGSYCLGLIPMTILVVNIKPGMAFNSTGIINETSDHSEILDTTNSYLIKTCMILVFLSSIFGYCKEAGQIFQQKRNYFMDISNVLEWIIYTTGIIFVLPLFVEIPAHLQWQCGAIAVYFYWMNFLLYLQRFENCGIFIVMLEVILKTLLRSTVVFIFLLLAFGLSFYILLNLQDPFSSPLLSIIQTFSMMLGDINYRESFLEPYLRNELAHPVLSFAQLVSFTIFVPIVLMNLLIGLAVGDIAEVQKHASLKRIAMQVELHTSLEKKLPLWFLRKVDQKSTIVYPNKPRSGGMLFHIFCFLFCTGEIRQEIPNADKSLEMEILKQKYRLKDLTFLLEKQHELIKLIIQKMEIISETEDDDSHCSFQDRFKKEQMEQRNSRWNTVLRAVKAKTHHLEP

Clc1c(OCCNCc2ccco2)ccc2ccccc12 [Compound 1]
Activity on TRPA1 (TRPA1): completely inactive; also recorded: didn’t have any effect
Threshold volume versus vehicle, intravenous ([1]; intravenous 10 mg/kg): No significant difference
Micturition frequency (MF) 0–30 min post-administration ([1]; intravenous 10 mg/kg, 0–30 min, 10 mg/kg): significantly decreased; also recorded: significantly reduced
Micturition frequency (MF) 30–60 min post-administration ([1]; intravenous 10 mg/kg, 30–60 min): no effect
Occurrence of RBC, intravesical ([1]; intravesical 2.268 mg): abolished the occurrence of RBC
